Data: US20100331269A1, “TRITERPENES DERIVATIVES AND USES THEREOF AS ANTITUMOR AGENTS OR ANTI-INFLAMMATORY AGENTS” (priority 2006, published 2010)

Key:
Type in all cases: cell-based
Conditions in all cases: 48 h, mean ± SD
[1] = system: DLD-1 human colorectal adenocarcinoma cells; test: Cytotoxicity, resazurin metabolism assay, DLD-1
Excerpt: (§1) Human lung carcinoma (A-549), human colon adenocarcinoma (DLD-1), human normal fibroblasts (WS1), mice melanoma (B16-F1), Human glioma (U-251), Human hepatocellular carcinoma (HEP G2), Human prostate adenocarcinoma (PC-3), Human ovary teratocarcinoma metastatic (PA-1), Human breast adenocarcinona metastatic (MDA-MB-231), Human breast adenocarcinoma (MCF-7) and Human malignant melanoma (SK-MEL-2) cell lines were obtained from the American Type Culture Collection (ATCC). All cell lines were cultured in minimum essential medium containing Earle's salts and L-glutamine (Mediatech Cellgro, Va.), to which was added 10% fetal bovine serum (Hyclone), vitamins (1×), penicillin (100 I.U./mL) and streptomycin (100 μg/mL), essential amino acids (1×) and sodium pyruvate (1×) (Mediatech Cellgro, Va.). Cells were kept at 37° C. in a humidified environment containing 5% CO2.
(§2) Exponentially growing cells were plated in 96-well microplates (Costar, Corning Inc.) at a density of 5×10^3 cells per well in 100 μL of culture medium and were allowed to adhere for 16 hours before treatment. Increasing concentrations of each compound in DMSO (Sigma-Aldrich) were then added (100 μL per well) and the cells were incubated for 48 h. […] Cytotoxicity was assessed using resazurin (O'Brien, J. et al., Eur. J. Biochem. 2000, 267, 5421-5426) on an automated 96-well Fluoroskan Ascent F1™ plate reader (Labsystems) using excitation and emission wavelengths of 530 nm and 590 nm, respectively. Fluorescence was proportional to the cellular metabolic activity in each well. Survival percentage was defined as the fluorescence in experimental wells compared to that in control wells after subtraction of blank values. Each experiment was carried out three times in triplicata. IC50 results were expressed as mean±standard deviation.
(§3) The cytotoxicity of triterpenes (1-8) and corresponding glycosides (9-30) (Table 2 below) as well as of germanicane-type triterpenes and glycosides (31-44) (Table 3 below) was assessed towards human cancer (A-549, DLD-1), mouse melanoma (B16-F1) and human normal skin fibroblast (WS1) cell lines using the resazurin reduction test (RTT test) as previously described (O'Brien, J. et al., Eur. J. Biochem. 2000, 267, 5421-5426). Measurements of fluorescence were carried out after 48 continuous hours of contact between compounds and cells. Results presented in Tables 2 and 3 below express the concentration inhibiting 50% of the cell growth (IC50). Known for its activity against A-549, betulinic acid (3) was used as a positive control in this experimentation. […] The cytotoxic activity of some of these compounds was also assessed using the Hoechst DNA assay (Table 4 below).

[2] = system: WS-1 human normal skin fibroblasts; test: Cytotoxicity, resazurin metabolism assay, WS-1
Excerpt: as §1, §2, §3

[3] = system: A-549 human lung carcinoma cells; test: Cytotoxicity, resazurin metabolism assay, A-549
Excerpt: as §1, §2, §3

Row | Structure (SMILES) | IC50 [1] | IC50 [2] | IC50 [3]
1 | CC1(C)CC[C@]23CC[C@]4(C)[C@H](CC[C@@H]5[C@@]6(C)CC[C@H](O[C@@H]7O[C@H](CO)[C@H](O)[C@H](O)[C@H]7O)C(C)(C)[C@@H]6CC[C@]54C)[C@H]2[C@H]1OC3=O [Compound 42, 3-O-β-D-Galactopyranoside of 28-Oxyallobetulin] | > 100 µM | > 100 µM | > 100 µM
2 | C=C(C)[C@@H]1CC[C@]2(C(=O)O)CC[C@]3(C)[C@H](CC[C@@H]4[C@@]5(C)CC[C@H](OC(C)=O)C(C)(C)[C@@H]5CC[C@]43C)[C@@H]12 [Compound 24, 3-Acetoxybetulinic Acid] | 20 ± 2 µM | 57 ± 6 µM | 18 ± 2 µM
3 | CC1(C)CC[C@]23CC[C@]4(C)[C@H](CC[C@@H]5[C@@]6(C)CC[C@H](O)C(C)(C)[C@@H]6CC[C@]54C)[C@H]2[C@H]1OC3=O [Compound 32, 28-Oxyallobetulin] | > 100 µM | 70 ± 9 µM | > 100 µM
4 | C=C(C)[C@@H]1CC[C@]2(C(=O)O)CC[C@]3(C)[C@H](CC[C@@H]4[C@@]5(C)CC[C@H](O[C@@H]6O[C@H](CO)[C@H](O)[C@H](O)[C@H]6O)C(C)(C)[C@@H]5CC[C@]43C)[C@@H]12 [Compound 28, 3-O-β-D-Galactopyranoside of Betulinic Acid] | > 100 µM | > 100 µM | > 100 µM
5 | CC1(C)CC[C@]23CC[C@]4(C)[C@H](CC[C@@H]5[C@@]6(C)CC[C@H](O[C@H]7O[C@H](CO)[C@@H](O)[C@H](O)[C@@H]7O)C(C)(C)[C@@H]6CC[C@]54C)[C@H]2[C@H]1OC3=O [Compound 43, 3-O-α-D-Mannopyranoside of 28-oxyallobetulin] | > 100 µM | > 100 µM | > 100 µM
6 | CC1(C)CC[C@]23CC[C@]4(C)[C@H](CC[C@@H]5[C@@]6(C)CC[C@H](O)C(C)(C)[C@@H]6CC[C@]54C)[C@H]2[C@H]1OC3 [Compound 31, Allobetulin] | > 100 µM | > 100 µM | > 100 µM
7 | CC1(C)CCC23CCC4(C)C(CCC5C6(C)CCC(OC7OCC(O)C(O)C7O)C(C)(C)C6CCC54C)C2C1OC3 [Compound 35, 3-O-α-D-Arabinopyranoside of Allobetulin] | > 100 µM | > 100 µM | > 100 µM
8 | CC1(C)CCC23CCC4(C)C(CCC5C6(C)CCC(OC7OC(CO)C(O)C(O)C7O)C(C)(C)C6CCC54C)C2C1OC3=O [Compound 39, 3-O-β-D-Glucopyranoside of 28-Oxyallobetulin] | > 100 µM | > 100 µM | > 100 µM
9 | C=C(C)[C@@H]1CC[C@]2(CO)CC[C@]3(C)[C@H](CC[C@@H]4[C@@]5(C)CC[C@H](O[C@@H]6O[C@H](CO)[C@H](O)[C@H](O)[C@H]6O)C(C)(C)[C@@H]5CC[C@]43C)[C@@H]12 [Compound 25, 3-O-β-D-Galactopyranoside of Betulin] | > 100 µM | > 100 µM | > 100 µM
10 | CC1(C)CC[C@]23CC[C@]4(C)[C@H](CC[C@@H]5[C@@]6(C)CC[C@H](O[C@H]7OC[C@@H](O)[C@@H](O)[C@@H]7O)C(C)(C)[C@@H]6CC[C@]54C)[C@H]2[C@H]1OC3=O [Compound 41, 3-O-α-D-Arabinopyranoside of 28-oxyallobetulin] | > 100 µM | > 100 µM | > 100 µM
11 | C[C@@H]1O[C@@H](O[C@H]2CC[C@]3(C)[C@H]4CC[C@@H]5[C@H]6[C@H]7OC[C@@]6(CCC7(C)C)CC[C@@]5(C)[C@]4(C)CC[C@H]3C2(C)C)[C@H](O)[C@H](O)[C@H]1O [Compound 34, 3-O-α-L-Rhamnopyranoside of Allobetulin] | > 100 µM | 75 ± 5 µM | > 100 µM
12 | C[C@@H]1O[C@@H](O[C@H]2CC[C@]3(C)[C@H]4CC[C@@H]5[C@H]6[C@H]7OC(=O)[C@@]6(CCC7(C)C)CC[C@@]5(C)[C@]4(C)CC[C@H]3C2(C)C)[C@H](O)[C@H](O)[C@H]1O [Compound 40, 3-O-α-L-Rhamnopyranoside of 28-Oxyallobetulin] | > 100 µM | > 100 µM | > 100 µM
